Measured values: patent US8394408B2, “Gastric retentive extended-release dosage forms comprising combinations of a non-opioid analgesic and an opioid analgesic” (Depomed, Inc., priority 2008, dated 2013)

Legend:
[1] = cited from earlier work
[2] = Oxycodone degradation (DHOXY/OXY), effect of binder, 40° C., 75% RH open dish 8 days; type: physicochemical

| Structure (SMILES) | Solubility in water [1] | DHOXY/OXY (%), Physical Blend ([2]; 40° C., 75% RH, open-dish 8 days) | DHOXY/OXY (%), Physical Blend ([2]; t = 0) |
| --- | --- | --- | --- |
| COc1ccc2c3c1O[C@H]1C(=O)CC[C@H]4[C@@H](C2)N(C)CC[C@]314.O=C(O)C(O)C(O)C(=O)O [hydrocodone bitartrate] | 62.5 mg/mL | – | – |
| COc1ccc2c3c1O[C@H]1C(=O)CC[C@@]4(O)[C@@H](C2)N(C)CC[C@]314.Cl [oxycodone HCl] | – | 0.07% | 0.07% |
